From PubChem BioAssay AID330 (DTP/NCI, 2004)
Several values for one entry are separate records, joined by “and”; a condition that tells them apart may be missing. Equal entries are not always repeated. Inconclusive results and toxic doses are left out.

System: P388 leukemia ip, CD2F1 mice, survival T/C
Assay: NCI In Vivo Anticancer Drug Screen. Data for tumor model P388 Leukemia (intraperitoneal) in CD2F1 (CDF1) mice
Details: endpoint: median survival time, higher = longer survival
In short: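 Mice carrying the transplanted tumor received test compound or vehicle. Survival was recorded in each group, and the value is the treated-group measurement divided by that of the vehicle-treated control group.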

[1] = dose: 25.0 mg/kg/injection, schedule: Q01DX009 (ip), vehicle: saline with Tween-80
[2] = dose: 50.0 mg/kg/injection, schedule: Q01DX009 (ip), vehicle: saline with Tween-80
[3] = dose: 100.0 mg/kg/injection, schedule: Q01DX009 (ip), vehicle: saline with Tween-80
[4] = dose: 50.0 mg/kg/injection, schedule: Q01DX005 (ip), vehicle: saline with Tween-80
[5] = dose: 100.0 mg/kg/injection, schedule: Q01DX005 (ip), vehicle: saline with Tween-80
[6] = dose: 12.5 mg/kg/injection, schedule: Q01DX009 (ip), vehicle: Klucel (hydroxypropylcellulose) (HPC)
[7] = dose: 25.0 mg/kg/injection, schedule: Q01DX009 (ip), vehicle: Klucel (hydroxypropylcellulose) (HPC)
[8] = dose: 50.0 mg/kg/injection, schedule: Q01DX009 (ip), vehicle: Klucel (hydroxypropylcellulose) (HPC)
[9] = dose: 100.0 mg/kg/injection, schedule: Q01DX009 (ip), vehicle: Klucel (hydroxypropylcellulose) (HPC)
[10] = dose: 50.0 mg/kg/injection, schedule: Q01DX005 (ip), vehicle: Klucel (hydroxypropylcellulose) (HPC)
[11] = dose: 100.0 mg/kg/injection, schedule: Q01DX005 (ip), vehicle: Klucel (hydroxypropylcellulose) (HPC)
[12] = dose: 50.0 mg/kg/injection, schedule: Q01DX009 (ip), vehicle: saline
[13] = dose: 100.0 mg/kg/injection, schedule: Q01DX009 (ip), vehicle: saline
[14] = dose: 200.0 mg/kg/injection, schedule: Q01DX009 (ip), vehicle: Klucel (hydroxypropylcellulose) (HPC)
[15] = dose: 25.0 mg/kg/injection, schedule: Q01DX009 (ip), vehicle: saline
[16] = dose: 400.0 mg/kg/injection, schedule: Q01DX009 (ip), vehicle: Klucel (hydroxypropylcellulose) (HPC)

CCOC(=O)C1=C(c2ccccc2)SC(c2ccccc2)N(C(C)C)C1=O (configuration not stated)
T/C [1]: 106 % of control | T/C [2]: 107 % of control | T/C [3]: 100 % of control

NC(=O)C1C2C=CC(O2)C1C(=O)O (configuration not stated)
T/C (dose: 7.5 mg/kg/injection, schedule: Q01DX005 (ip), vehicle: saline): 100 % of control | T/C (dose: 15.0 mg/kg/injection, schedule: Q01DX005 (ip), vehicle: saline): 104 % of control | T/C (dose: 30.0 mg/kg/injection, schedule: Q01DX005 (ip), vehicle: saline): 104 % of control

CC1C(c2ccccc2)NC(c2ccccc2)C(C)C1(O)c1ccccc1 (configuration not stated)
T/C [4]: 107 % of control | T/C [5]: 107 % of control

C[Si](C)(CCl)N[Si](C)(C)CCl
T/C (dose: 50.0 mg/kg/injection, schedule: Q01DX009 (ip), vehicle: suspension in saline): 100 % of control | T/C [3]: 100 % of control | T/C (dose: 100.0 mg/kg/injection, schedule: Q01DX009 (ip), vehicle: suspension in saline): 98 % of control | T/C (dose: 200.0 mg/kg/injection, schedule: Q01DX009 (ip), vehicle: saline with Tween-80): 96 % of control | T/C (dose: 200.0 mg/kg/injection, schedule: Q01DX009 (ip), vehicle: suspension in saline): 105 % of control | T/C (dose: 400.0 mg/kg/injection, schedule: Q01DX009 (ip), vehicle: saline with Tween-80): 122 % of control

O=c1cc(O)n(-c2ccccc2)c(=O)n1-c1ccccc1
T/C (dose: 75.0 mg/kg/injection, schedule: Q01DX009 (ip), vehicle: saline with Tween-80): 102 % of control | T/C (dose: 150.0 mg/kg/injection, schedule: Q01DX009 (ip), vehicle: saline with Tween-80): 100 % of control | T/C (dose: 300.0 mg/kg/injection, schedule: Q01DX009 (ip), vehicle: saline with Tween-80): 100 % of control

S=C(Nc1ccc(Cl)c(Cl)c1)SCc1ccc2c(c1)OCO2
T/C [6]: 116 % of control | T/C [7]: 120 % of control | T/C [8]: 121 % of control | T/C [9]: 112 % of control and 97 % of control

O=[N+]([O-])c1cc2c(ccc3ccccc32)o1
T/C [10]: 102 % of control | T/C [11]: 103 % of control | T/C (dose: 200.0 mg/kg/injection, schedule: Q01DX005 (ip), vehicle: Klucel (hydroxypropylcellulose) (HPC)): 117 % of control

OC1COC2C(O)COC12 (configuration not stated)
T/C [12]: 102 % of control | T/C [13]: 90 % of control

CCCCN1C(=O)C(=O)N(Cc2ccco2)C1=O
T/C [8]: 98 % of control | T/C [9]: 104 % of control | T/C [14]: 106 % of control

CNC(=O)Sc1ccc(C)c(N(C)C)c1
T/C [4]: 111 % of control and 117 % of control | T/C [5]: 120 % of control

CC1(C)N=C(N)N=C(N)N1c1ccc(OCCCCNC(=O)c2ccc(S(=O)(=O)F)cc2)c(Cl)c1
T/C [1]: 150 % of control | T/C [15]: 161 % of control | T/C [12]: 159 % of control

CC(=O)C(O)N1C(=O)C=CC1=O (configuration not stated)
T/C (dose: 2.5 mg/kg/injection, schedule: Q01DX009 (ip), vehicle: saline with Tween-80): 86 % of control | T/C (dose: 2.5 mg/kg/injection, schedule: Q04DX003 (ip), vehicle: saline): 100 % of control | T/C (dose: 5.0 mg/kg/injection, schedule: Q04DX003 (ip), vehicle: saline): 95 % of control | T/C (dose: 10.0 mg/kg/injection, schedule: Q04DX003 (ip), vehicle: saline): 100 % of control

COc1ccc(I)c(C=NC2CCCCC2)c1C
T/C (dose: 50.0 mg/kg/injection, schedule: Q01DX005 (ip), vehicle: distilled water + Tween-80 + alcohol): 98 % of control | T/C (dose: 100.0 mg/kg/injection, schedule: Q01DX005 (ip), vehicle: distilled water + Tween-80 + alcohol): 97 % of control | T/C (dose: 200.0 mg/kg/injection, schedule: Q01DX005 (ip), vehicle: distilled water + Tween-80 + alcohol): 98 % of control

CSc1nc(NC2OCC(OC(C)=O)C(OC(C)=O)C2OC(C)=O)c(N=CC=Nc2c(NC3OCC(OC(C)=O)C(OC(C)=O)C3OC(C)=O)nc(SC)n(C)c2=O)c(=O)n1C (configuration not stated)
T/C (dose: 60.0 mg/kg/injection, schedule: Q01DX005 (ip), vehicle: saline with Tween-80): 95 % of control | T/C (dose: 120.0 mg/kg/injection, schedule: Q01DX005 (ip), vehicle: saline with Tween-80): 91 % of control | T/C (dose: 240.0 mg/kg/injection, schedule: Q01DX005 (ip), vehicle: saline with Tween-80): 92 % of control

Cc1cc2cc(C)c3c(Cl)nnc(Cl)c3c2o1
T/C [4]: 106 % of control | T/C [5]: 103 % of control | T/C (dose: 200.0 mg/kg/injection, schedule: Q01DX005 (ip), vehicle: saline with Tween-80): 100 % of control

O=S(=O)(O)c1ccc(-c2c3nc(c(-c4ccc(S(=O)(=O)O)cc4)c4ccc([nH]4)c(-c4ccc(S(=O)(=O)O)cc4)c4nc(c(-c5ccc(S(=O)(=O)O)cc5)c5ccc2[nH]5)C=C4)C=C3)cc1
T/C (dose: 1.56 mg/kg/injection, schedule: Q01DX009 (ip), vehicle: distilled water + Tween-80): 97 % of control | T/C (dose: 3.13 mg/kg/injection, schedule: Q01DX009 (ip), vehicle: distilled water + Tween-80): 100 % of control | T/C (dose: 6.25 mg/kg/injection, schedule: Q01DX009 (ip), vehicle: distilled water + Tween-80): 100 % of control | T/C (dose: 12.5 mg/kg/injection, schedule: Q01DX009 (ip), vehicle: distilled water + Tween-80): 102 % of control and 109 % of control

CCCCCCC1(/C=C/c2ccc(Cl)cc2Cl)OCC(C)(C)CO1
T/C (dose: 50.0 mg/kg/injection, schedule: Q01DX009 (ip), vehicle: saline + alcohol): 102 % of control | T/C (dose: 100.0 mg/kg/injection, schedule: Q01DX009 (ip), vehicle: saline + alcohol): 102 % of control | T/C (dose: 200.0 mg/kg/injection, schedule: Q01DX009 (ip), vehicle: saline + alcohol): 102 % of control

CN(C)CSc1nc2ccccc2s1
T/C [8]: 96 % of control | T/C [9]: 94 % of control | T/C [14]: 94 % of control | T/C [16]: 95 % of control

c1ccc(CN2COC3CCCCCCC32)cc1 (configuration not stated)
T/C (dose: 50.0 mg/kg/injection, schedule: Q01DX005 (ip), vehicle: saline): 104 % of control | T/C (dose: 100.0 mg/kg/injection, schedule: Q01DX005 (ip), vehicle: saline): 112 % of control | T/C (dose: 200.0 mg/kg/injection, schedule: Q01DX005 (ip), vehicle: saline): 114 % of control

C/C=C(/C)C(=O)OC1c2c(C)coc2CC23OC2CCC(C)C13C (configuration not stated)
T/C [6]: 98 % of control | T/C [7]: 105 % of control | T/C [8]: 99 % of control

CCS(=O)(=O)Nc1cccc(Nc2c3cccc(C)c3nc3c(C)cccc23)c1OC
T/C (dose: 0.7 mg/kg/injection, schedule: Q01DX009 (ip), vehicle: saline with Tween-80): 121 % of control | T/C (dose: 5.5 mg/kg/injection, schedule: Q01DX009 (ip), vehicle: saline with Tween-80): 157 % of control | T/C (dose: 6.25 mg/kg/injection, schedule: Q01DX009 (ip), vehicle: saline with Tween-80): 171 % of control | T/C (dose: 11.0 mg/kg/injection, schedule: Q01DX009 (ip), vehicle: saline with Tween-80): 172 % of control and 217 % of control | T/C (dose: 12.5 mg/kg/injection, schedule: Q01DX009 (ip), vehicle: saline with Tween-80): 177 % of control | T/C (dose: 16.7 mg/kg/injection, schedule: Q01DX009 (ip), vehicle: saline with Tween-80): 220 % of control | T/C [1]: 155 % of control and 266 % of control | T/C (dose: 37.5 mg/kg/injection, schedule: Q01DX009 (ip), vehicle: saline with Tween-80): 86 % of control | T/C [2]: 91 % of control

Nc1ccc2cc(S(=O)(=O)O)cc(O)c2c1N=Nc1ccc(F)cc1
T/C [15]: 93 % of control | T/C [12]: 93 % of control | T/C [13]: 88 % of control and 91 % of control

CS(=O)(=O)Oc1ccc[nH]c1=O
T/C (dose: 6.25 mg/kg/injection, schedule: Q01DX009 (ip), vehicle: saline): 110 % of control | T/C [6]: 93 % of control | T/C (dose: 12.5 mg/kg/injection, schedule: Q01DX009 (ip), vehicle: saline): 121 % of control | T/C [7]: 103 % of control | T/C [15]: 115 % of control | T/C [8]: 104 % of control | T/C [12]: 118 % of control | T/C [9]: 97 % of control | T/C [13]: 109 % of control | T/C [14]: 98 % of control | T/C [16]: 97 % of control

CNc1nc2c(C)ccc3[nH]c(N(C)C)nc3c-2n1
T/C (dose: 25.0 mg/kg/injection, schedule: Q01DX005 (ip), vehicle: Klucel (hydroxypropylcellulose) (HPC)): 100 % of control | T/C [10]: 99 % of control | T/C [11]: 91 % of control

c1nnc2c3c4c(sc3ncn12)CCCC4
T/C [4]: 97 % of control | T/C [5]: 91 % of control
